Laboratory results published in US20260008817A1, “CYCLIC PEPTIDE OR SALT THEREOF, AND USES THEREOF” (FUJIFILM Corporation, priority 2023, published 2026).
Non-standard residues stand in square brackets, D forms with d. No end group written: not given here. hCys = N[C@@H](CCS)C(=O)O; Orn = NCCC[C@H](N)C(=O)O

What was measured:
[1] = test system: hMSC-Human Mesenchymal Stem Cells; assay: Effect of maintaining MSC undifferentiated potency (gene expression); assay type: cell-based; settings: cyclic peptide complex 10 nmol/L, bFGF 1 nmol/L, normalized to 1 nmol/L bFGF = 1, FIG. 4
Method: The effect of maintaining mesenchymal stem cell (MSC) undifferentiated potency of the cyclic peptide complex was evaluated.
MSC was prepared in the same manner as in Example 7.
The evaluation of the effect of maintaining the MSC undifferentiated potency was performed by the following method. First, a culture medium (hereinafter, referred to as a custom culture medium) in which bFGF was removed from PRIME-XV MSC Expansion XSFM (FUJIFILM Irvine Scientific, Inc., 91149) was prepared. Next, Prime-XV Human Fibronectin (FUJIFILM Irvine Scientific, Inc., 31002) was dissolved in PBS (Fujifilm Wako Pure Chemical Corporation, 164-23551), 2 μg/cm^2 of the solution was added to a 12-well plate used for proliferation, and the 12-well plate was allowed to stand at room temperature for 3 hours to coat the 12-well plate with fibronectin. Thereafter, the MSCs subjected to the subculture were peeled using Tryple Express (Thermo, 12604-013), washed once with a custom culture medium, suspended in a custom culture medium in which a cyclic peptide complex or bFGF (R&D Systems, 3718-GMP) was diluted to final concentrations of 10 nmol/L and 1 nmol/L, and seeded on a 12-well plate coated with fibronectin. In this case, conditions in which the cyclic peptide complex and bFGF were not added as a negative control were prepared. After culturing at 37° C. (5% CO2) for 2 nights, the culture medium was replaced by removing the supernatant of the culture medium and adding the same amount of a culture medium prepared to have the same composition as the removed culture medium. After further culturing at 37° C. (5% CO2) for 2 nights, RNA was extracted using an RNeasy Plus Mini Kit (Qiagen, 74136) according to the manufacturer's protocol. […] The expression level of each gene was normalized by setting the expression level of the well to which 1 nmol/L bFGF was added to 1.

[2] = test system: hMSC-Human Mesenchymal Stem Cells; assay: Mesenchymal stem cell (MSC) proliferation-promoting effect; assay type: cell-based; settings: 0.001 to 3 nmol/L, compared with bFGF at the same molar ratio; FIG. 3
Method: The mesenchymal stem cell (MSC) proliferation-promoting effect of the cyclic peptide complex was evaluated.
The MSC was activated and subcultured according to the recommended protocol of FUJIFILM Irvine Scientific, Inc. using hMSC-Human Mesenchymal Stem Cells (Lonza, PT-2501) and PRIME-XV MSC Expansion XSFM (FUJIFILM Irvine Scientific, Inc., 91149) as a culture medium. MSCs that had been subcultured 1 to 4 times were used for the evaluation.
The evaluation of the proliferation-promoting effect of MSC was performed by the following method. First, a culture medium (hereinafter, referred to as a custom culture medium) in which bFGF was removed from PRIME-XV MSC Expansion XSFM (FUJIFILM Irvine Scientific, Inc., 91149) was prepared. Next, Prime-XV Human Fibronectin (FUJIFILM Irvine Scientific, Inc., 31002) was dissolved in PBS (Fujifilm Wako Pure Chemical Corporation, 164-23551), 2 μg/cm^2 of the solution was added to a 96-well plate used for evaluation, and the 96-well plate was allowed to stand at room temperature for 3 hours to coat the 96-well plate with fibronectin. […] The number of viable cells was calculated from the imaging data and normalized by setting the number of viable cells in the well to which 1 nmol/L bFGF was added to 100, and setting the number of viable cells in the negative control well to 0.

Bovine myoblasts = assay: Bovine myoblast proliferation-promoting effect; assay type: cell-based, Japanese Black cattle; settings: 0.03 to 10 nmol/L complex versus 30 ng/mL bFGF, 4 days; FIG. 5
Method: The bovine cells (myoblasts) proliferation-promoting effect of the cyclic peptide complex was evaluated.
Bovine myoblasts were separated from bovine muscle tissue by the following method. First, muscle tissue of Japanese Black cattle was finely chopped in HBSS(−) (phenol red-free) (FUJIFILM Wako Pure Chemical Corporation, 085-09355), and then pronase from Streptomyces griseus (Sigma-Aldrich, 10165921001) was added thereto to a final concentration of 1 mg/mL, and the mixture was allowed to stand at 37° C. for 1 hour. After allowing to stand, HBSS containing 10% FBS was added thereto, and the cells were acquired by centrifugation. The acquired cells were suspended in D-MEM (high glucose) (containing L-glutamine and phenol red) (FUJIFILM Wako Pure Chemical Corporation, 044-29765) containing 10% final concentration of bovine serum and 30 ng/mL bFGF. Suspended cells were cultured in a culture flask coated with an iMatrix-511 solution (FUJIFILM Wako Pure Chemical Corporation, 381-07363) at 0.55 μg/cm^2. […]
The evaluation of the proliferation-promoting effect on bovine myoblasts was performed by the following method. […] The number of viable cells was calculated from the imaging data and normalized by setting the number of viable cells in the well to which 30 ng/mL bFGF was added to 100, and setting the number of viable cells in the negative control well to 0.

F-(Orn(acetyl))-VYTFDAHAHSLDAALN-(Hcy)-I (F[Orn]VYTFDAHAHSLDAALN[hCys]IF[Orn]VYTFDAHAHSLDAALN[hCys]I-NH2; thioether (positions not given here); not fully specified (residues 2, 22, bridges); also: dimer of two 20-mers crosslinked via Bis-NHS-PEG13 between side-chain amino groups, C-terminal amide on each monomer) [SEQ ID NO: 346, cyclic peptide complex; C-terminal amidation, amide crosslinking between side chain amino groups of N via Bis-NHS-PEG13]
expression level of Sox2 [1]: same degree of a gene expression level as bFGF
MSC proliferation-promoting effect [2]: same degree of MSC proliferation-promoting effect as bFGF
proliferation-promoting effect on bovine myoblasts (Bovine myoblasts): comparable to or higher than that of bFGF
